Results published in patent US10131652B2, “Pyrimidinyloxy benzene derivatives as herbicides” (E. I. DU PONT DE NEMOURS AND COMPANY, priority 2014, dated 2018).

What was measured:
Type in all cases: in vivo
[1] = system: oilseed rape (Brassica napus); experiment: Test D pre-/postemergence plant response
Excerpt: (§1) Seeds of plant species selected from blackgrass (Alopecurus myosuroides), Italian ryegrass (Lolium multiflorum), winter wheat (Triticum aestivum), galium (catchweed bedstraw, Galium aparine), corn (Zea mays), large (Lg) crabgrass (Digitaria sanguinalis), giant foxtail (Setaria faberii), johnsongrass (Sorghum halepense), lambsquarters (Chenopodium album), morningglory (Ipomoea coccinea), yellow nutsedge (Cyperus esculentus), pigweed (Amaranthus retroflexus), ragweed (common ragweed, Ambrosia elatior), soybean (Glycine max), bamyardgrass (Echinochloa crus-galli), oilseed rape (Brassica napus), waterhemp (common waterhemp, Amaranthus rudis), and velvetleaf (Abutilon theophrasti) were planted into a blend of loam soil and sand and treated preemergence with test chemicals formulated in a non-phytotoxic solvent mixture which included a surfactant. At the same time, plants selected from these crop and weed species and also kochia (Kochia scoparia), wild oat (Avena fatua), and chickweed (common chickweed, Stellaria media) were planted in pots containing Redi-Earth® planting medium (Scotts Company, 14111 Scottslawn Road, Marysville, Ohio 43041) comprising spaghnum peat moss, vermiculite, wetting agent and starter nutrients and treated with postemergence applications of test chemicals formulated in the same manner. Plants ranged in height from 2 to 18 cm (1- to 4-leaf stage) for postemergence treatments. Treated plants and controls were maintained in a greenhouse for 13 to 15 days, after which time all species were compared to controls and visually evaluated. Plant response ratings, summarized in Table D, are based on a scale of 0 to 100 where 0 is no effect and 100 is complete control. A dash (-) response means no test result.

[2] = system: winter wheat (Triticum aestivum); experiment: Test D pre-/postemergence plant response
Excerpt: as §1

[3] = system: ragweed (common ragweed, Ambrosia elatior); experiment: Test D pre-/postemergence plant response
Excerpt: as §1

[4] = system: galium (catchweed bedstraw, Galium aparine); experiment: Test D pre-/postemergence plant response
Excerpt: as §1

[5] = system: johnsongrass (Sorghum halepense); experiment: Test D pre-/postemergence plant response
Excerpt: as §1

[6] = system: yellow nutsedge (Cyperus esculentus); experiment: Test D pre-/postemergence plant response
Excerpt: as §1

[7] = system: giant foxtail (Setaria faberii); experiment: Test B pre-/postemergence plant response
How it was run: (§2)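 Greenhouse pots, loam/sand soil; compound formulated with surfactant in non-phytotoxic solvent. Preemergence soil spray and postemergence spray at 1–2 leaf stage run simultaneously. Visual injury, 0–100, about 10 days post-treatment.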

[8] = system: barnyardgrass (Echinochloa crus-galli); experiment: Test B pre-/postemergence plant response
How it was run: as §2

[9] = system: pigweed (Amaranthus retroflexus); experiment: Test B pre-/postemergence plant response
How it was run: as §2

[10] = system: wheat (Triticum aestivum); experiment: Test B pre-/postemergence plant response; conditions: 125 g ai/ha, postemergence; 0 to 100 scale, 0 no effect, 100 complete control
How it was run: as §2

corn (Zea mays) = experiment: Test B pre-/postemergence plant response; conditions: 0 to 100 scale, 0 no effect, 100 complete control
How it was run: as §2

[11] = system: ducksalad (Heteranthera limosa); experiment: Test C flooded paddy test plant response; conditions: Flood, 250 g ai/ha; scale of 0 to 100 where 0 is no effect and 100 is complete control; 13 to 15 days
How it was run: (§3)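 Visual injury ratings (0, no effect; 100, complete control) were assigned after 13 to 15 days in a greenhouse, comparing treated plants with controls. Compounds had been added straight into paddy water over 2-leaf-stage plants flooded to 3 cm.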

[12] = system: small-flower umbrella sedge (Cyperus difformis); experiment: Test C flooded paddy test plant response; conditions: Flood, 250 g ai/ha; scale of 0 to 100 where 0 is no effect and 100 is complete control; 13 to 15 days
How it was run: as §3

rice (Oryza sativa) = experiment: Test C flooded paddy test plant response; conditions: Flood, 250 g ai/ha; scale of 0 to 100 where 0 is no effect and 100 is complete control; 13 to 15 days
How it was run: as §3

[13] = system: barnyardgrass (Echinochloa crus-galli); experiment: Test C flooded paddy test plant response; conditions: Flood, 250 g ai/ha; scale of 0 to 100 where 0 is no effect and 100 is complete control; 13 to 15 days
How it was run: as §3

[14] = Postemergence, 31 g ai/ha, scale 0 to 100 (0 no effect, 100 complete control)
[15] = Postemergence, 62 g ai/ha, scale 0 to 100, 0 no effect, 100 complete control
[16] = Postemergence, 125 g ai/ha, scale 0 to 100, 0 no effect, 100 complete control
[17] = Preemergence, 16 g ai/ha, scale 0 to 100 (0 no effect, 100 complete control)
[18] = Preemergence, 31 g ai/ha, scale 0 to 100 (0 no effect, 100 complete control)
[19] = Preemergence, 62 g ai/ha, scale 0 to 100 (0 no effect, 100 complete control)
[20] = 31 g ai/ha, Postemergence, 0 to 100 scale, 0 no effect, 100 complete control
[21] = 31 g ai/ha, Preemergence, 0 to 100 scale where 0 is no effect and 100 is complete control
[22] = 125 g ai/ha, postemergence, 0 to 100 scale, 0 no effect, 100 complete control
[23] = Preemergence, 125 g ai/ha, 0 to 100 scale (0 no effect, 100 complete control)

With `FC(F)Oc1cccc(Oc2ncc(Cl)cn2)c1-c1cc(C(F)F)on1` [Compound 131] the “Oilseed Rape plant response rating” value [1, 14] was 45, the “Plant response rating, Oilseed Rape” value [1, 15] was 80 and the “Plant response rating, Oilseed Rape” value [1, 16] was 85. For the same compound, the “Plant response rating (scale 0 to 100), Oilseed Rape” value ([1]; Preemergence, 125 g ai/ha) was 95, the “Plant response rating, Oilseed Rape” value [1, 17] was 10 and the “Plant response rating, Oilseed Rape” value [1, 18] was 50. The “Plant response rating, Oilseed Rape” value [1, 19] was 85, the “Wheat plant response rating” value [2, 14] was 0 and the “Plant response rating, Wheat” value [2, 15] was 0. The “Plant response rating, Wheat” value [2, 16] was 0, the “Plant response rating (scale 0 to 100), Wheat” value ([2]; Preemergence, 125 g ai/ha) was 5 and the “Plant response rating, Wheat” value [2, 17] was 0. The “Plant response rating, Wheat” value [2, 18] was 0, the “Plant response rating, Wheat” value [2, 19] was 0 and the “Ragweed plant response rating” value [3, 14] was 45. The “Plant response rating, Ragweed” value [3, 15] was 65, the “Plant response rating, Ragweed” value [3, 16] was 75 and the “Plant response rating (scale 0 to 100), Ragweed” value ([3]; Preemergence, 125 g ai/ha) was 25. The “Plant response rating, Ragweed” value [3, 17] was 0, the “Plant response rating, Ragweed” value [3, 18] was 0 and the “Plant response rating, Ragweed” value [3, 19] was 0. For the same compound, the “Galium plant response rating” value [4, 14] was 85, the “Plant response rating, Galium” value [4, 15] was 95 and the “Plant response rating, Galium” value [4, 16] was 95. For the same compound, the “Plant response rating (scale 0 to 100), Galium” value ([4]; Preemergence, 125 g ai/ha) was 90, the “Plant response rating, Galium” value [4, 17] was 95 and the “Plant response rating, Galium” value [4, 18] was 30. For the same compound, the “Plant response rating, Galium” value [4, 19] was 90, the “Johnsongrass plant response rating” value [5, 14] was 5 and the “Plant response rating, Johnsongrass” value [5, 15] was 25. For the same compound, the “Plant response rating, Johnsongrass” value [5, 16] was 45, the “Plant response rating (scale 0 to 100), Johnsongrass” value ([5]; Preemergence, 125 g ai/ha) was 85 and the “Plant response rating, Johnsongrass” value [5, 17] was 0. For the same compound, the “Plant response rating, Johnsongrass” value [5, 18] was 30, the “Plant response rating, Johnsongrass” value [5, 19] was 80 and the “Nutsedge, Yellow plant response rating” value [6, 14] was 0. The “Plant response rating, Nutsedge, Yellow” value [6, 15] was 5, the “Plant response rating, Nutsedge, Yellow” value [6, 16] was 10 and the “Plant response rating (scale 0 to 100), Nutsedge, Yellow” value ([6]; Preemergence, 125 g ai/ha) was 70. For the same compound, the “Plant response rating, Nutsedge, Yellow” value [6, 17] was 0, the “Plant response rating, Nutsedge, Yellow” value [6, 18] was 5 and the “Plant response rating, Nutsedge, Yellow” value [6, 19] was 5. The “Plant response rating, Foxtail, Giant” value [7, 20] was 50, the “Plant response rating, Foxtail, Giant” value [7, 21] was 100 and the “Plant response rating, Foxtail, Giant” value [7, 22] was 90. For the same compound, the “Foxtail, Giant plant response rating” value [7, 23] was 100, the “Plant response rating, Barnyardgrass” value [8, 20] was 50 and the “Plant response rating, Barnyardgrass” value [8, 21] was 80. The “Plant response rating, Barnyardgrass” value [8, 22] was 90, the “Barnyardgrass plant response rating” value [8, 23] was 100 and the “Plant response rating, Pigweed” value [9, 21] was 100. The “Plant response rating, Pigweed” value [9, 22] was 100, the “Pigweed plant response rating” value [9, 23] was 100 and the “Plant response rating, Wheat” value [10] was 30. For the same compound, the “Plant response rating, Corn” value (corn (Zea mays); 31 g ai/ha, Postemergence) was 20, the “Plant response rating, Corn” value (corn (Zea mays); 125 g ai/ha, postemergence) was 40 and the “Ducksalad plant response rating” value [11] was 95. For the same compound, the “Sedge, Umbrella plant response rating” value [12] was 95, the “Rice plant response rating” value (rice (Oryza sativa)) was 60 and the “Barnyardgrass plant response rating” value [13] was 75.
